Molecules are shown by their SMILES.

In the experiment the target is T1, ΔTM-FlmC (FlmC81-335) (Lactiplantibacillus plantarum, UniProt F9UMI5).
T1 construct: gene lp_1000
In words: co-purification from E. coli; organic extraction of unfolded protein, TLC and UHPLC-HRMS. In kind it is binding. The following applies: lipid acquired from expression host; identity inferred from m/z 775.5789 (+, in-source dehydro form) and 387.2863 (2-), tentative.

T1 sequence (F9UMI5 entry or part of it, stated change not applied): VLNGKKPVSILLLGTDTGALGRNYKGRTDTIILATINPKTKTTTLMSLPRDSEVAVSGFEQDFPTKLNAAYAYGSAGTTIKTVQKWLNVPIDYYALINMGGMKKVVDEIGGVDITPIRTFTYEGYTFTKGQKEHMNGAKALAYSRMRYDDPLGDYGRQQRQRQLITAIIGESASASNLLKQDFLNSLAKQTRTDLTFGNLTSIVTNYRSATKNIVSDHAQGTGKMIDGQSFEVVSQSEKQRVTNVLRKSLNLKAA

In the case of `CC(C)=CCCC(C)=CCCC(C)=CCCC(C)=CCCC(C)=CCCC(C)=CCCC(C)=CCCC(C)=CCCC(C)=CCCC(C)=CCOP(=O)(O)O` [decaprenyl phosphate], the “co-purification from E. coli; organic extraction of unfolded protein, TLC and UH” value is given as “occurrence of a decaprenyl phosphate (dpr-P) ligand tightly bound to the protein was hypothesized”.

The values above are taken from PMC6225345, “Structural Characterization of the Lactobacillus Plantarum FlmC Protein Involved in Biofilm Formation” (Molecules : A Journal of Synthetic Chemistry and Natural …, 2018).
